The record followed here is patent publication US20080113938A1, “ACCELERATOR FOR MINERAL ABSORPTION AND USE THEREOF” (KABUSHIKI KAISHA HAYASHIBARA SEIBUTSU KAGAKU KENKYUJO, priority 2003, published 2008).

One assay concerns femur. In words: Dry weight, ash, calcium, magnesium and phosphorus of the femur of rats. It counts as in vivo, Wister rats. From the text: Forty of Wister rats weighing 110 to 120 g (five-weeks aged male, commercialized by Charles River Japan Inc., Yokohama, Japan) were bred with a feed containing ingredients (%) shown in Table 1 for one week in order to be familiarized. The familiarized rats were randomly divided into four groups with ten rats each. Each group was experimentally bred for eight weeks with either a feed without cyclic tetrasaccharide shown in Table 1 (hereinafter, it is called as “basic feed”), or another feed of basic feed supplemented with 1%, 2% or 5% on a dry solid basis, of cyclic tetrasaccharide in a crystalline anhydrous powder form with a purity of 99.5%, prepared in the following Example A-3. These basic feed and three kinds of feeds with cyclic tetrasaccharide were prepared to contain 44.75% of the total amount of cyclic tetrasaccharide and corn starch in each feed. From one week before the end of the breeding test, in order to determine the metabolism of calcium, magnesium, iron, sodium, potassium and phosphorus (hereinafter, may be called “minerals” in all), rats in the all groups were fed with the four types of feeds supplemented with 0.5% of chromium oxide as a non-absorbed marker for the minerals. The rats were bred at 25° C. in a manner of freely allowing to take feeds and water under a condition of 12 hours regular interval between of light and shade. After completion of experimental breeding, all rats were individually weighed to calculate the average of weight and further calculate the rate of increased weight for each group.
Two days before the end of the breeding test, rats were placed into a gauge for measuring metabolism to collect their excrement in two days. The resulting excrement was subjected to the measurement of the contents of cyclic tetrasaccharide, each mineral, and chromium. After the breeding test, the rats were anatomized in an anesthetized condition to take out their alimentary canals including jejunum, intestinum ileum, appendix and colon/rectum. After the resulting alimentary canals were weighed, their contents were also weighed and subjected to the measurement of the amount of cyclic tetrasaccharide, minerals and chromium. The rats, which had been taken out their alimentary canals, were dislocated at their cervical vertebrae and taken out their femurs from right legs. The resulting femurs were subjected to the measurement of the amount of ashes, calcium, magnesium and phosphorus. The following(s) explain the methods of quantitative analysis of cyclic tetrasaccharide and the methods of measurement of minerals and chromium.
Two grams of a feed was preciously weighed in a porcelain crucible, heated to carbonize, and heated at 600° C. to incinerate. After weighed, the resulting test samples were admixed with hydrochloric acid in a precious analysis grade (concentration of 20%, commercialized by Wako Pure Chemicals, Co., Ltd., Osaka, Japan) to give a final concentration of 1%. They were subjected to atomic absorption spectrometry (“Zeeman5100™”, commercialized by PerkinElmer); in the case of measurement of chromium, they were subjected to a flameless type one. In the case of measurement of phosphorus, they were subjected to usual molybdenum blue absorptiometry. On the other hand, 0.1 g of each of the contents of jejunum, intestinum ileum, appendix, colon/rectum, and excrement was subjected to wet-type incineration to prepare test samples similarly as in the above case of feed, and the test samples were quantified. The right femurs taken out from the anatomized rats were dried at 105° C. for 15 hours and measured as a dry weight. The resulting dried femurs were precisely weighed in a porcelain crucible, and incinerated similarly as in the case of the feed. The resultants were weighed and quantified for calcium, magnesium and phosphorus.

The test system of assay [1] is reversed canal sac of intestinum ileum. In words: Calcium absorption in reversed canal sac, intestinum ileum. It counts as cell-based, Wister rats. As for the experimental part:
Experiment 1 confirmed that cyclic tetrasaccharide promotes mineral absorption in alimentary canal of rat concretely in intestinum ileum or its upper alimentary canal. The following experiment was carried out in order to determine a part of alimentary canal, cyclic tetrasaccharide acts on to promote mineral absorption. Twenty heads of Wister rats (nine week aged male, commercialized by Charlesriver Corporation, Kanagawa, Japan) were bred for three days with a usual solid feed for rats. Under the anesthetization with ether, alimentary canal was taken out from each rat which had been bled from a jugular vein and treated by abdominal operation. Each alimentary canal was divided into jejunum, intestinum ileum and colon/rectum and washed with physiological saline to remove the content. The resulting jejunum specimen, intestinum ileum specimen or colon/rectum specimen was cut off to prepare each midsection sized with about 10 cm in length. The resulting midsection of each specimen was reversed using a glass rod and immersed in a physiological saline babbled with gas consisting of 95% oxygen and 5% carbon dioxide. The resultant was cut into pieces sized with 5 cm in length and each piece was tied with a suture thread at both ends to prepare a reversed canal sac, and injected with about 0.5 ml of an internal sac solution containing 30 mM Tris-HCl buffer (pH7.4), 125 mM sodium chloride, 4 mM potassium chloride, 10 mM glucose and 1.25 mM calcium chloride (dihydrate) with a syringe and weighed. The resulting sac was immersed in an external sac solution (being bubbled with the gas consisting of 95% oxygen and 5% carbon dioxide) containing 50 mM, 100 mM or 200 mM of the same cyclic tetrasaccharide to Experiment 1 in the above solution containing 30 mM Tris-HCl buffer (pH7.4), 125 mM sodium chloride, 4 mM potassium chloride, 10 mM glucose and 1.25 mM calcium chloride (dihydrate). At 15 or 30 minutes after the immersion, the reversed canal sac was taken out from the solution and washed with distilled water. The internal sac solution was collected from the resulting sac and admixed with distilled water to give a final volume of 25 ml. The resulting solution was subjected to a calorimetric measurement of calcium content using “CALCIUM TEST C WAKO™” (commercialized by Wako Pure Chemicals Corporation, Osaka, Japan). As a negative control, an external sac solution without saccharides. As a positive control, an external sac solution containing 200 mM maltitol, reported to have the effect on promoting mineral absorption though intestinal canal, instead of cyclic tetrasaccharide were prepared and carried out in the same manner. Speed of calcium absorption (nmol/min·cm^2) and its relative values defining the value of negative control as 100 were calculated.

[2] abbreviates: feed supplemented with 1% cyclic tetrasaccharide.
Setting [3] is: feed supplemented with 2% cyclic tetrasaccharide.
Setting [4] is: feed supplemented with 5% cyclic tetrasaccharide.
[5] abbreviates: 50 mM saccharide in external sac solution.
Setting [6] is: 100 mM saccharide in external sac solution.
The mark [7] stands for this setting: 200 mM saccharide in external sac solution.

Marks after values point to notes of the source that are not given here.

In the case of `OC[C@H]1O[C@@H]2OC[C@H]3O[C@H](O[C@@H]4[C@@H](O)[C@@H](OC[C@H]5O[C@H](O[C@H]([C@H]2O)[C@@H]1O)[C@H](O)[C@@H](O)[C@@H]5O)O[C@H](CO)[C@H]4O)[C@H](O)[C@@H](O)[C@@H]3O` [cyclic tetrasaccharide, cyclo{>6)-α-D-glucopyranosyl-(1>3)-α-D-glucopyranosyl-(1>6)-α-D-glucopyranosyl-(1>3)-α-D-glucopyranosyl-(1>}], the “amounts of dried bone weight, ash, calcium, magnesium and phosphorus” value in the assay on femur (comparing with the control, 1%, 2%, 5% feeds) is given as “significantly increased”. Besides, in the assay on femur (setting [2]), the Amount of ash is 0.64 * g/g dry femur, the “Amount of calcium in femur” value is given as 217 * ^ mg/g dry femur, the “Amount of magnesium in femur” value is 4.3 * mg/g dry femur and the “Amount of phosphorus in femur” value was 115 * ^ mg/g dry femur. For the same compound, the “Dry weight of femur” value in the assay with femur (setting [2]) is reported as 0.68 * g. Also, in the assay on femur (setting [3]), the Amount of ash is given as 0.65 * g/g dry femur, the “Amount of calcium in femur” value was 225 * ^ mg/g dry femur, the “Amount of magnesium in femur” value is 4.4 * mg/g dry femur and the “Amount of phosphorus in femur” value is listed as 116 * ^ mg/g dry femur. Further, in the assay on femur (setting [3]), the “Dry weight of femur” value was 0.71 * g. Also, in the assay with femur (setting [4]), the Amount of ash is reported as 0.66 * g/g dry femur, the “Amount of calcium in femur” value is 240 * ^ mg/g dry femur, the “Amount of magnesium in femur” value is listed as 4.5 * mg/g dry femur and the “Amount of phosphorus in femur” value is 118 * ^ mg/g dry femur. Also, the “Dry weight of femur” value in the assay with femur (setting [4]) is reported as 0.71 * g. Moreover, in assay [1] (setting [5]), the “Absorption speed of calcium in alimentary canal sac, Intestinum ileum” value (shortened to “Absorption speed of calcium”) is 33.6 *※ nmol/min · cm^2 and the “Relative value of calcium absorption speed (control = 100), Intestinum ileum” value was “(124)”. In addition, in assay [1] (setting [6]), the “Absorption speed of calcium” value was 46.0 *※ nmol/min · cm^2 and the “Relative value of calcium absorption speed (control = 100), Intestinum ileum” value is listed as “(167)”. In assay [1] (setting [7]), the “Absorption speed of calcium” value is recorded as 52.9 *※ nmol/min · cm^2 and the “Relative value of calcium absorption speed (control = 100), Intestinum ileum” value was “(195)”. For the same compound, in assay [1] (reversed sac), the “promotion of calcium absorption in intestinum ileum” value is listed as “strongly promoted”.
